Results on seven compounds are retold here after patent US10358427B2, “Modulators of indoleamine 2,3-dioxygenase” (GLAXOSMITHKLINE INTELLECTUAL PROPERTY DEVELOPMENT LIMITED, priority 2015, dated 2019).

Experiment [1] concerns the target T1, indoleamine 2, 3-dioxygenase (IDO1) (Homo sapiens, UniProt P14902). Description: HeLa IDOi assay (kynurenine detection via mass spectrometry). Particulars: human epithelial HeLa cells stimulated with IFN-γ; kynurenine by mass spectrometry; 2 days incubation. The experiment is classed as cell-based. Also on record: human epithelial HeLa cells (CCL-2; host or cells: HeLa cells stimulated with human IFN-γ. As to the method:
(§1) Compounds of the present invention were tested via high-throughput cellular assays utilizing detection of kynurenine via mass spectrometry and cytotoxicity as end-points. For the mass spectrometry and cytotoxicity assays, human epithelial HeLa cells (CCL-2; ATCC®, Manassas, Va.) were stimulated with human interferon-γ (IFN-γ) (Sigma-Aldrich Corporation, St. Louis, Mo.) to induce the expression of indoleamine 2, 3-dioxygenase (IDO1). Compounds with IDO1 inhibitory properties decreased the amount of kynurenine produced by the cells via the tryptophan catabolic pathway. Cellular toxicity due to the effect of compound treatment was measured using CellTiter-Glo® reagent (CTG) (Promega Corporation, Madison, Wis.), which is based on luminescent detection of ATP, an indicator of metabolically active cells.
(§2) In preparation for the assays, test compounds were serially diluted 3-fold in DMSO from a typical top concentration of 5 mM and plated at 0.5 μL in 384-well, polystyrene, clear bottom, tissue culture treated plates with lids (Greiner Bio-One, Kremsmünster, Austria) to generate 11-point dose response curves. Low control wells (0% kynurenine or 100% cytotoxicity) contained either 0.5 μL of DMSO in the presence of unstimulated (−IFN-γ) HeLa cells for the mass spectrometry assay or 0.5 μL of DMSO in the absence of cells for the cytotoxicity assay, and high control wells (100% kynurenine or 0% cytotoxicity) contained 0.5 μL of DMSO in the presence of stimulated (+IFN-γ) HeLa cells for both the mass spectrometry and cytotoxicity assays.
Frozen stocks of HeLa cells were washed and recovered in DMEM high glucose medium with HEPES (Thermo Fisher Scientific, Inc., Waltham, Mass.) supplemented with 10% v/v certified fetal bovine serum (FBS) (Thermo Fisher Scientific, Inc., Waltham, Mass.), and 1× penicillin-streptomycin antibiotic solution (Thermo Fisher Scientific, Inc., Waltham, Mass.). The cells were diluted to 100,000 cells/mL in the supplemented DMEM medium. 50 μL of either the cell suspension, for the mass spectrometry assay, or medium alone, for the cytotoxicity assay, were added to the low control wells, on the previously prepared 384-well compound plates, resulting in 5,000 cells/well or 0 cells/well respectively. IFN-γ was added to the remaining cell suspension at a final concentration of 10 nM, and 50 μL of the stimulated cells were added to all remaining wells on the 384-well compound plates. The plates, with lids, were then placed in a 37° C., 5% CO2 humidified incubator for 2 days.
(§3) Following incubation, the 384-well plates were removed from the incubator and allowed to equilibrate to room temperature for 30 minutes. For the cytotoxicity assay, CellTiter-Glo® was prepared according to the manufacturer's instructions, and 10 μL were added to each plate well. After a twenty minute incubation at room temperature, luminescence was read on an EnVision® Multilabel Reader (PerkinElmer Inc., Waltham, Mass.). For the mass spectrometry assay, 10 μL of supernatant from each well of the compound-treated plates were added to 40 μL of acetonitrile, containing 10 μM of an internal standard for normalization, in 384-well, polypropylene, V-bottom plates (Greiner Bio-One, Kremsmünster, Austria) to extract the organic analytes. Following centrifugation at 2000 rpm for 10 minutes, 10 μL from each well of the acetonitrile extraction plates were added to 90 μL of sterile, distilled H2O in 384-well, polypropylene, V-bottom plates for analysis of kynurenine and the internal standard on the RapidFire 300 (Agilent Technologies, Santa Clara, Calif.) and 4000 QTRAP MS (SCIEX, Framingham, Mass.). MS data were integrated using Agilent Technologies' RapidFire Integrator software, and data were normalized for analysis as a ratio of kynurenine to the internal standard. […]

Experiment [2] concerns the target T1, indoleamine 2, 3-dioxygenase (IDO1). The experiment is described as follows: PBMC IDOi assay (kynurenine detection via mass spectrometry). The class given is cell-based. The note with it: human PBMC stimulated with IFN-γ and LPS; kynurenine by mass spectrometry; 2 days incubation. On the procedure:
as §1, with “peripheral blood mononuclear” for “epithelial HeLa”, “(PBMC) (PB003F; AlICells®, Alameda, Calif.)” for “(CCL-2; ATCC®, Manassas, Va.)”, “Mo.) and lipopolysaccharide from Salmonella minnesota (LPS) (Invivogen, San Diego, Calif.)” for “Mo.)”
as §2, with “(−IFN-γ/−LPS) PBMCs” for “(−IFN-γ) HeLa cells”, “(+IFN-γ/+LPS) PBMCs” for “(+IFN-γ) HeLa cells”
Frozen stocks of PBMCs were washed and recovered in RPMI 1640 medium (Thermo Fisher Scientific, Inc., Waltham, Mass.) supplemented with 10% v/v heat-inactivated fetal bovine serum (FBS) (Thermo Fisher Scientific, Inc., Waltham, Mass.), and 1× penicillin-streptomycin antibiotic solution (Thermo Fisher Scientific, Inc., Waltham, Mass.). The cells were diluted to 1,000,000 cells/mL in the supplemented RPMI 1640 medium. 50 μL of either the cell suspension, for the mass spectrometry assay, or medium alone, for the cytotoxicity assay, were added to the low control wells, on the previously prepared 384-well compound plates, resulting in 50,000 cells/well or 0 cells/well respectively. IFN-γ and LPS were added to the remaining cell suspension at final concentrations of 100 ng/ml and 50 ng/ml respectively, and 50 μL of the stimulated cells were added to all remaining wells on the 384-well compound plates. The plates, with lids, were then placed in a 37° C., 5% CO2 humidified incubator for 2 days.
as §3, with “and 40” for “and 10”

T1 sequence (P14902 whole entry): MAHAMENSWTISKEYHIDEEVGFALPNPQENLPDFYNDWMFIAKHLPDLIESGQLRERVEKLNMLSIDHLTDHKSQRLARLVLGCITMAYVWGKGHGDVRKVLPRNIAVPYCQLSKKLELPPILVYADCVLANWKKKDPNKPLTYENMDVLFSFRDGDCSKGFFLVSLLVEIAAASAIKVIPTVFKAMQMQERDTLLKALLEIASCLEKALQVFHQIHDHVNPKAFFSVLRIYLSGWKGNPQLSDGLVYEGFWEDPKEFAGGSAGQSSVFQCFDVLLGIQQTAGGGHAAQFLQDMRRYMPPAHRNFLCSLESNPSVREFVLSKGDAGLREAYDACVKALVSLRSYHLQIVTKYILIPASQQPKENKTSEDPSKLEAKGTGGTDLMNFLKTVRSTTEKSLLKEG

For the compound `CCCCc1cc(-c2ccccc2-c2nnn[nH]2)cc(Nc2nc3ccccc3o2)c1OCCC` [Example 14, N-(5-Butyl-4-propoxy-2′-(1H-tetrazol-5-yl)-[1,1′-biphenyl]-3-yl)benzo[d]oxazol-2-amine], the EC50 in experiment [1] is 5.01 nM; in experiment [2] it was 7.94 nM.
With `CCCC(CCC)Oc1ccc(-c2ccccc2-c2nnn[nH]2)cc1Nc1nc2ccccc2o1` [Example 16, N-(4-(Heptan-4-yloxy)-2′-(1H-tetrazol-5-yl)-[1,1′-biphenyl]-3-yl)benzo[d]oxazol-2-amine], the concentration giving a half-maximal response (EC50) in experiment [1] was 100 nM; in experiment [2], 63.1 nM.
In the same order, the values of `CC(C)CN(c1ccc(-c2ccccc2C(=O)O)cc1Nc1nc(C(F)(F)F)ns1)C1CCCCC1` [Example 17, 4′-(Cyclohexyl(isobutyl)amino)-3′((3-(trifluoromethyl)-1,2,4-thiadiazol-5-yl)amino)-[1,1′-biphenyl]-2-carboxylic acid] are 2 nM and 1 nM.
The matching figures for `CC(C)CN(c1ccc(-c2ccccc2-c2nnn[nH]2)cc1Nc1nc(C(F)(F)F)ns1)C1CCCCC1` [Example 18, N^4-cyclohexyl-N^4-isobutyl-2′-(1H-tetrazol-5-yl)-N^3-(3-(trifluoromethyl)-1,2,4-thiadiazol-5-yl)-[1,1′-biphenyl]-3,4-diamine]: 2.51 nM and 1.26 nM.
In the same order, the values of `CC(C)CN(c1ccc(-c2ccccc2-c2nnn[nH]2)cc1Nc1nc2ccccc2[nH]1)C1CCCCC1` [Example 19, N^3-(1H-benzo[d]imidazol-2-yl)-N^4-cyclohexyl-N^4-isobutyl-2′-(1H-tetrazol-5-yl)-[1,1′-biphenyl]-3,4-diamine] are 6.31 nM and 1.58 nM.
As for `CC(C)CN(c1ccc(-c2ccccc2C(=O)O)cc1Nc1nnc(C2CC2)s1)C1CCCCC1` [Example 20, 4′-(Cyclohexyl(isobutyl)amino)-3′((5-cyclopropyl-1,3,4-thiadiazol-2-yl)amino)-[1,1′-biphenyl]-2-carboxylic acid], the EC50 in experiment [1] is 2 nM; in experiment [2], 0.794 nM.
The matching figures for `CC(C)CN(c1ccc(-c2ccccc2-c2nnn[nH]2)cc1Nc1nnc(C2CC2)s1)C1CCCCC1` [Example 21, N^4-Cyclohexyl-N^3-(5-cyclopropyl-1,3,4-thiadiazol-2-yl)-N^4-isobutyl-2′-(1H-tetrazol-5-yl)-[1,1′-biphenyl]-3,4-diamine]: 3.16 nM and 1.58 nM.

As a reminder, the EC50 is the concentration needed to bring the measured effect to its halfway point. A higher EC50 goes with weaker potency.
